In patent US20210038559A1, “CANNABINOIDS AND DERIVATIVES FOR PROMOTING IMMUNOGENICITY OF TUMOR AND INFECTED CELLS” (priority 2018, published 2021):

What follows are compounds tested on MHC-I expression by COLO 205 cells (assay: cells). Conditions: not given.
Type: cell-based, human
Protocol: A panel of synthetic cannabinoids (Cayman Chemical, #9002891) was tested for MHC class I-inducing capability in COLO 205 cells as described above. COLO 205 cells were treated with the compounds at a concentration of 35 μM and evaluated for cell surface MHC class I expression after 48 hours. Cells were harvested, stained with MHC-I mAb W6/32 (Thermo Fisher). MHC-I expression was determined by flow cytometry.

Row | Compound | Induction Fold [Fold]
1 | C#CCCCCCCCCCNC(=O)Oc1cccc(-c2cccc(C(N)=O)c2)c1 [Example 182, 3′-carbamoyl-biphenyl-3-yl-undecynecarbamate] | 1.93
2 | (1-hexyl-1H-pyrrol-3-yl)-1-naphthalenyl-methanone [Example 72] | 2.68
3 | CS(=O)(=O)O.Cc1c(C(=O)c2cccc3ccccc23)c2cccc3c2n1C(CN1CCOCC1)CO3 (centres unmarked) [Example 376, [2,3-dihydro-5-methyl-3-(4-morpholinylmethyl)pyrrolo[1,2,3-de]-1,4-benzoxazin-6-yl]-1-naphthalenyl-methanone, methanesulfonate] | 0.32
4 | O=C(c1cccc2ccccc12)c1nn(CCCCCF)c2ccccc12 [Example 134, [1-(5-fluoropentyl)-1H-indazol-3-yl]-1-naphthalenyl-methanone] | 2.23
5 | (2-ethyl-1-pentyl-1H-indol-3-yl)-1-naphthalenyl-methanone [Example 154] | 2.11
6 | 1-naphthalenyl[5-(1-naphthalenyl)-1-pentyl-1H-pyrrol-3-yl]-methanone [Example 214] | 1.80

Same assay, conditions: Homo sapiens, COLO 205, 48 h, MHC-I expression, COLO 205 cells, compounds at 35 μM, 48 hours, flow cytometry (W6/32); read-out: Induction Fold

Row | Compound | fold induction at 35 µM
7 | CCCCCn1cc(C(=O)c2cccc3cc(OC)ccc23)c2ccccc21 [Example 300, (6-methoxy-1-naphthalenyl)(1-pentyl-1H-indol-3-yl)-methanone] | 1.42
8 | CCCCCn1cc(C(=O)c2cccc3c(C)cccc23)c2ccccc21 [Example 191, (5-methylnaphthalen-1-yl)(1-pentyl-1H-indol-3-yl)methanone] | 1.89
9 | CCCCCn1c(C(=O)c2cccc3ccccc23)nc2ccccc21 [Example 123, naphthalen-1-yl(1-pentyl-1H-benzo[d]imidazol-2-yl)methanone] | 2.31
10 | CC(C)[C@H](NC(=O)c1cn(Cc2ccc(F)cc2)c2ccccc12)C(N)=O [Example 237, N-[(1S)-1-(aminocarbonyl)-2-methylpropyl]-1-[(4-fluorophenyl)methyl]-1H-indole-3-carboxamide] | 1.7
11 | CCCCCn1cc(C(=O)Oc2ccc3ncccc3c2)c2ccccc21 [Example 256, quinolin-6-yl 1-pentyl-1H-indole-3-carboxylate] | 1.59
12 | CCCCCn1cc(C(=O)Cc2ccccc2C)c2ccccc21 [Example 101, 2-(2-methylphenyl)-1-(1-pentyl-1H-indol-3-yl)-ethanone] | 2.42
13 | CC(F)CCCn1nc(C(=O)NC(C(N)=O)C(C)C)c2ccccc21 (centres unmarked) [Example 293, N-(1-amino-3-methyl-1-oxobutan-2-yl)-1-(4-fluoropentyl)-1H-indazole-3-carboxamide] | 1.43
14 | CCCCCn1cc(C(=O)Cc2ccc(OC)cc2)c2ccccc21 [Example 59, 2-(4-methoxyphenyl)-1-(1-pentyl-1H-indol-3-yl)-ethanone] | 2.85
15 | O=C(c1ccc2ccccc2c1)c1cn(CCCCCF)c2ccccc12 [Example 139, (1-(5-fluoropentyl)-1H-indol-3-yl)(naphthalen-2-yl)methanone] | 2.19
16 | CCCC(C)n1cc(C(=O)c2ccc3ccccc3c2)c2ccccc21 (centres unmarked) [Example 362, naphthalen-2-yl(1-(pentan-2-yl)-1H-indol-3-yl)methanone] | 0.95
17 | CCCCCc1cc(O)cc(OCCCCCCCCCCC(=O)NC2CC2)c1 [Example 331, N-cyclopropyl-11-(3-hydroxy-5-pentylphenoxy)-undecanamide] | 1.22
18 | CCCCCn1nc(C(=O)N[C@@H](CCCC)C(N)=O)c2ccccc21 (single isomer, unassigned) [Example 11] | 4.56
19 | CCCCCn1cc(C(=O)c2ccc(OC)cc2)c2ccccc21 [Example 129, (4-methoxyphenyl)(1-pentyl-1H-indol-3-yl)methanone] | 2.27
20 | CCCCCC(C)(C)c1ccc([C@H]2CCC[C@@H](O)C2)c(O)c1 (relative stereo) [Example 209, cis-5-(1,1-dimethylhexyl)-2-(3-hydroxycyclohexyl)-phenol] | 1.84
21 | O=C(Oc1cccc2ccccc12)c1cn(CCCCCF)c2ccccc12 [Example 257, naphthalen-1-yl 1-(5-fluoropentyl)-1H-indole-3-carboxylate] | 1.59
22 | CCN(CC)CCN1C(=O)CN=C(c2ccccc2F)c2cc(Cl)ccc21 [Example 250, 7-chloro-1-[2-(diethylamino)ethyl]-5-(2-fluorophenyl)-1,3-dihydro-2H-1,4-benzodiazepin-2-one] | 1.63
23 | CCCCCn1cc(C(=O)c2cccc3ccccc23)c2ccc(OC)cc21 [Example 175, (6-methoxy-1-pentyl-1H-indol-3-yl)(naphthalen-1-yl)-methanone] | 1.95
24 | CC1(C)C(C(=O)c2cn(CCN3CCOCC3)c3ccccc23)C1(C)C [Example 147, [1-[2-(4-morpholinyl)ethyl]-1H-indol-3-yl](2,2,3,3-tetramethylcyclopropyl)-methanone] | 2.14

Row | Compound | fold induction at 35 µM
25 | CC(C)(NC(=O)c1nn(CCCCC#N)c2ccccc12)c1ccccc1 [Example 281, 1-(4-cyanobutyl)-N-(1-methyl-1-phenylethyl)-1H-indazole-3-carboxamide] | 1.48
26 | Cc1ccc(C(=O)c2cn(CCN3CCOCC3)c3ccccc23)c2ccccc12 [Example 203, (4-methyl-1-naphthalenyl)[1-[2-(4-morpholinyl)ethyl]-1H-indol-3-yl]-methanone] | 1.87
27 | O=C(Oc1cnc2ccccc2c1)c1cn(CC2CCCCC2)c2ccccc12 [Example 261, Quinolin-3-yl 1-(cyclohexylmethyl)-1H-indole-3-carboxylate] | 1.56
28 | O=C(Oc1cccc2cnccc12)c1cn(CC2CCCCC2)c2ccccc12 [Example 162, isoquinolin-5-yl 1-(cyclohexylmethyl)-1H-indole-3-carboxylate] | 2.04
29 | CCCCCn1cc(C(=O)c2c(CC)ccc3ccccc23)c2ccccc21 [Example 89, (2-ethylnaphthalen-1-yl)(1-pentyl-1H-indol-3-yl)methanone] | 2.5
30 | CCCCCn1nc(C(=O)Oc2cccc3cccnc23)c2ccccc21 [Example 258, 1-pentyl-1H-indazole-3-carboxylic acid, 8-quinolinyl ester] | 1.59
31 | CC1(C)C(C(=O)c2cn(CCCC(F)(F)F)c3ccccc23)C1(C)C [Example 110, (2,2,3,3-tetramethylcyclopropyl)[1-(4,4,4-trifluorobutyl)-1H-indol-3-yl]-methanone] | 2.37
32 | CCC(F)CCn1cc(C(=O)c2cccc3ccccc23)c2ccccc21 (centres unmarked) [Example 128, (1-(3-fluoropentyl)-1H-indol-3-yl)(naphthalen-1-yl)methanone] | 2.28
33 | CC1(C)C(C(=O)c2cn(CCCCCCl)c3ccccc23)C1(C)C [Example 138, (1-(5-chloropentyl)-1H-indol-3-yl)(2,2,3,3-tetramethylcyclopropyl)methanone] | 2.21
34 | CC1(C)C(C(=O)N/N=C2\C(=O)N(CCCCCF)c3ccccc32)C1(C)C [Example 111, 2,2,3,3-tetramethyl-cyclopropanecarboxylic acid (2Z)-2-[1-(5-fluoropentyl)-1,2-dihydro-2-oxo-3H-indol-3-ylidene]hydrazide] | 2.37
35 | CC(C)(C)C(NC(=O)c1nn(Cc2ccc(F)cc2)c2ccccc12)C(N)=O (centres unmarked) [Example 247, N-[1-(aminocarbonyl)-2,2-dimethylpropyl]-1-[(4-fluorophenyl)methyl]-1H-indazole-3-carboxamide] | 1.64
36 | CC(C)CCCCn1cc(C(=O)C2C(C)(C)C2(C)C)c2ccccc21 [Example 225, (1-(5-methylhexyl)-1H-indol-3-yl)(2,2,3,3-tetramethylcyclopropyl)methanone] | 1.75
37 | CC(C)(NC(=O)c1nn(CC2CCOCC2)c2ccccc12)c1ccccc1 [Example 322, N-(1-methyl-1-phenylethyl)-1-[(tetrahydro-2H-pyran-4-yl)methyl]-1H-indazole-3-carboxamide] | 1.27
38 | CCCCCn1cc(C(=O)Oc2ccnc3ccccc23)c2ccccc21 [Example 10, quinolin-4-yl 1-pentyl-1H-indole-3-carboxylate] | 5.02
39 | CC(C)(NC(=O)c1c2ccccc2nn1CCCCC#N)c1ccccc1 (single isomer, unassigned) [Example 299, 2-(4-cyanobutyl)-N-(2-phenylpropan-2-yl)-2H-indazole-3-carboxamide] | 1.42
40 | CC(C)Cn1cc(C(=O)c2ccc3ccccc3c2)c2ccccc21 [Example 284, (1-isobutyl-1H-indol-3-yl)(naphthalen-2-yl)methanone] | 1.46
41 | CCCC(F)Cn1nc(C(=O)NC(C(N)=O)C(C)C)c2ccccc21 (centres unmarked) [Example 317, N-(1-amino-3-methyl-1-oxobutan-2-yl)-1-(2-fluoropentyl)-1H-indazole-3-carboxamide] | 1.31
42 | CC(F)CCCn1cc(C(=O)Nc2cccc3ccccc23)c2ccccc21 (centres unmarked) [Example 339, 1-(4-fluoropentyl)-N-(naphthalen-1-yl)-1H-indole-3-carboxamide] | 1.19

Same assay, conditions: MHC-I expression, COLO 205 cells, compounds at 35 μM, 48 hours, flow cytometry (W6/32)

Row | Compound | Induction Fold [Fold]
43 | O=C(NC12CC3CC(CC(C3)C1)C2)c1cn(CCCCCF)c2ccccc12 [Example 319, 1-(5-fluoropentyl)-N-tricyclo[3.3.1.13,7] dec-1-yl-1H-indole-3-carboxamide] | 1.31
44 | CCCCCCC(C)(C)C1=CC(=O)C([C@H]2CCC[C@@H](O)C2)=CC1=O [Example 61, 3′R-hydroxy-4-(2-methyloctan-2-yl)-[1,1′S-bi(cyclohexane)]-3,6-diene-2,5-dione] | 2.85
